Test results reported in patent US20240239794A1, “PKC-Theta Modulators” (Exscientia AI Limited, priority 2021, published 2024).
Counter-ions that a name gives are not always drawn. Like-named read-outs stand apart in the source and are kept apart here.

Experiments:
[1] = molecular target: Recombinant human PKC-delta (His-tagged 345-676) (Homo sapiens (Human), UniProt Q05655); test: PKC-delta inhibition assay (HTRF KinEASE kit), PKC-theta/PKC-delta selectivity; format: biochemical; details: ratio; for PKC-theta/PKC-delta selectivity: PKC-theta over PKC-delta, HTRF assays; for PKC-theta/PKC-delta selectivity (binned): binned A to G
Chain of Recombinant human PKC-delta (His-tagged 345-676) (Q05655 345-676): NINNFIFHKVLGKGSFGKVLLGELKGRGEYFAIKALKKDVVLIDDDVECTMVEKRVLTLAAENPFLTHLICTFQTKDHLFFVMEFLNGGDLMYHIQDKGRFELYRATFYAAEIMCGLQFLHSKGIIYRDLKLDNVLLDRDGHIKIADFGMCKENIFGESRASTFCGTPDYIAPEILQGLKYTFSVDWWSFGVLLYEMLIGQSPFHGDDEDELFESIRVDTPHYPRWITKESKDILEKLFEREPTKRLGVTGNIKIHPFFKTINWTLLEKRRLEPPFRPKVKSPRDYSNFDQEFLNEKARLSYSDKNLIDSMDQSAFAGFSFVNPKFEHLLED
Method in brief: (§1)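 HTRF KinEASE kinase assay, buffer supplemented with 10 mM MgCl2, 1 mM DTT, 0.1% Tween 20; enzyme at 10 ng/ml preincubated 30 min on ice with compound. PKC-theta: 525 nM STK substrate, 6.5 μM ATP, 30 min at 25° C; PKC-delta: 243 nM substrate, 5.7 μM ATP, 20 min. IC50 from 4-parameter fit of 10-dose series.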

[2] = test system: IL-2 secretion by human effector memory T cells (TEM); test: Effector memory T cells IL-2 release assay; format: cell-based; details: T-cell, 24 h
Method in brief: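 Human CD4+ effector memory T cells (negatively sorted from donor PBMC), 5,000 per well, stimulated with CD3/CD28 beads and 10 semi-log compound doses for 24 h at 37° C, 0.1% DMSO. Supernatant IL-2 measured by HTRF; IC50 from 4-parameter logistic fit; viability checked by flow cytometry.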

[3] = molecular target: Recombinant human PKC-theta (His-tagged 362-706) (Homo sapiens (Human), UniProt Q04759); test: PKC-theta inhibition assay (HTRF KinEASE kit); format: biochemical; details: ATP 6.5 μM; for IC50: binned A to H, read-out: PKC-theta HTRF pIC50 (binned) (converted)
Chain of Recombinant human PKC-theta (His-tagged 362-706) (Q04759 362-706): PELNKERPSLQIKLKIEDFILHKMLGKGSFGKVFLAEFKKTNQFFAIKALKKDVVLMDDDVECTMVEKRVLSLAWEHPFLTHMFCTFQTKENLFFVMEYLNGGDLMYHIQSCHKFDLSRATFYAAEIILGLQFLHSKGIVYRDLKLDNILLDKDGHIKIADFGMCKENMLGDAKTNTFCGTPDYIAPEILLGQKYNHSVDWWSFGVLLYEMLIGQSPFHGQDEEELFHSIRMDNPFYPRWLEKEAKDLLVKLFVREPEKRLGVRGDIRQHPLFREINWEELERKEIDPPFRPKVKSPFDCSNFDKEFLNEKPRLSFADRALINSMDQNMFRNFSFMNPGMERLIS
Method in brief: as §1

[4] = human CD4+ TEM cells, CD3/CD28 bead stimulation, binned A to G, read-out: PKC-theta IL2 pIC50 (binned) (converted)
[5] = human CD4+ TEM cells, CD3/CD28 bead stimulation, read-out: PKC-theta IL2 pIC50 (converted)

| Compound | PKC-theta/PKC-delta selectivity [1] | PKC-theta/PKC-delta selectivity (binned) [1] | IC50 [2, 4] | IC50 [2, 5] | PKC-theta HTRF pIC50 [3] | IC50 [3] | IC50 ([2]; Homo sapiens, read-out: PKC-theta IL2 pIC50 (binned) (converted)) | IC50 ([2]; Homo sapiens, read-out: PKC-theta IL2 pIC50 (converted)) |
| --- | --- | --- | --- | --- | --- | --- | --- | --- |
| CC1(C)C(=O)Nc2nccc(-c3nn(C4(CC#N)COC4)c4ccccc34)c21 [Example 45] | 15 | D (D means a ratio of between 10 and 20) | > 1000 nM | 1000 nM | 7.4 | 31.6 to 100 nM | – | – |
| CC1(C)C(=O)Nc2nccc(-c3nn(C4(CC#N)CNC4)c4ccccc34)c21 [Example 46] | 3 | F (F means a ratio of between 1 and 5) | 100 to 316 nM | 158 nM | 8.2 | 3.16 to 10 nM | – | – |
| CCC1(O)C(=O)Nc2nccc(-c3nn(C4(CC#N)CCC4)c4ccccc34)c21 (stereo not drawn) [Example 51] | 11 | D (D means a ratio of between 10 and 20) | 10 to 31.6 nM | 15.8 nM | 9.3 | ≤ 1 nM | – | – |
| CCC1(C)C(=O)Nc2nccc(-c3nn([C@@H]4CCNC[C@@H]4F)c4ccccc34)c21 (stereo partly drawn) [Example 52] | 8 | E (E means a ratio of between 5 and 10) | 31.6 to 100 nM | 39.8 nM | 8.4 | 3.16 to 10 nM | – | – |
| CCC1(C)C(=O)Nc2nccc(-c3nn([C@H]4CCNC4)c4ccccc34)c21 (stereo partly drawn) [Example 53] | 13 | D (D means a ratio of between 10 and 20) | 31.6 to 100 nM | 100 nM | 8.3 | 3.16 to 10 nM | – | – |
| CC1(Cn2nc(-c3ccnc4c3C(C)(C)C(=O)N4)c3ccccc32)COCCN1 (stereo not drawn) [Example 54, 3,3-dimethyl-4-[1-[(3-methylmorpholin-3-yl)methyl]indazol-3-yl]-1H-pyrrolo[2,3-b]pyridin-2-one] | 22 | C (C means a ratio of between 20 and 30) | 31.6 to 100 nM | 79.4 nM | 8.6 | 1 to 3.16 nM | – | – |
| O=C1Nc2nccc(-c3nn(C4(CO)CCNC4)c4cc(F)ccc34)c2C12CCCC2 (stereo not drawn) [Example 55, 4-[6-fluoro-1-[3-(hydroxymethyl)pyrrolidin-3-yl]indazol-3-yl]spiro[1H-pyrrolo[2,3-b]pyridine-3,1′-cyclopentane]-2-one dihydrochloride] | 4 | F (F means a ratio of between 1 and 5) | – | – | 8.2 | 3.16 to 10 nM | 100 to 316 nM | 158 nM |
| CCC1(O)C(=O)Nc2nccc(-c3nn([C@@H]4CCNC[C@@H]4F)c4ccccc34)c21 (stereo partly drawn) [Example 56] | 15 | D (D means a ratio of between 10 and 20) | 31.6 to 100 nM | 50.1 nM | 8.7 | 1 to 3.16 nM | – | – |
| COC1(C)C(=O)Nc2nccc(-c3nn(C4(CC#N)CCC4)c4ccccc34)c21 (stereo not drawn) [Example 57] | 14 | D (D means a ratio of between 10 and 20) | 31.6 to 100 nM | 50.1 nM | 8.9 | 1 to 3.16 nM | – | – |
| COC1(C)C(=O)Nc2nccc(-c3nn([C@@H]4CCNC[C@@H]4F)c4ccccc34)c21 (stereo partly drawn) [Example 61] | 16 | D (D means a ratio of between 10 and 20) | 31.6 to 100 nM | 50.1 nM | 8.7 | 1 to 3.16 nM | – | – |
| CNC1(C)C(=O)Nc2nccc(-c3nn(C4(CC#N)CCC4)c4ccccc34)c21 (stereo not drawn) [Example 62] | 3 | F (F means a ratio of between 1 and 5) | 1 to 3.16 nM | 1.58 nM | 9.5 | ≤ 1 nM | – | – |
| CN1CCOCC1(C)Cn1nc(-c2ccnc3c2C(C)(C)C(=O)N3)c2ccccc21 (stereo not drawn) [Example 63] | 17 | D (D means a ratio of between 10 and 20) | > 1000 nM | 1260 nM | 7.5 | 10 to 31.6 nM | – | – |
| COC1(C)C(=O)Nc2nccc(-c3nn(CC4(F)CCCNC4)c4ccccc34)c21 (stereo not drawn) [Example 67] | 9 | E (E means a ratio of between 5 and 10) | 316 to 1000 nM | 398 nM | 7.5 | 31.6 to 100 nM | – | – |
| CC1(C)C(=O)Nc2nccc(-c3nn([C@H]4CCNC4)c4cc(F)ccc34)c21 [Example 70] | 20 | C (C means a ratio of between 20 and 30) | 100 to 316 nM | 126 nM | 8.1 | 3.16 to 10 nM | – | – |
| CC1(C)C(=O)Nc2nccc(-c3nn([C@H]4CCNC4)c4cc(Cl)ccc34)c21 [Example 71] | 22 | C (C means a ratio of between 20 and 30) | 100 to 316 nM | 126 nM | 8.1 | 3.16 to 10 nM | – | – |
| CC1(C)C(=O)Nc2nccc(-c3nn([C@H]4CCNC4)c4c(F)cccc34)c21 [Example 72] | 20 | D (D means a ratio of between 10 and 20) | 100 to 316 nM | 200 nM | 7.9 | 10 to 31.6 nM | – | – |
| CC1(C)C(=O)Nc2nccc(-c3nn([C@H]4CCNC4)c4ccc(F)cc34)c21 [Example 73] | 10 | D (D means a ratio of between 10 and 20) | 316 to 1000 nM | 631 nM | 7.5 | 10 to 31.6 nM | – | – |
| CC1(C)C(=O)Nc2nccc(-c3nn([C@H]4CCNC4)c4cc(C(F)(F)F)ccc34)c21 [Example 74] | 33 | B (B means a ratio of between 30 and 50) | 316 to 1000 nM | 631 nM | 6.5 | 100 to 316 nM | – | – |
| CC1(C)C(=O)Nc2nccc(-c3nn(C4(CF)CCNC4)c4ccccc34)c21 (stereo not drawn) [Example 77] | 11 | D (D means a ratio of between 10 and 20) | 10 to 31.6 nM | 12.6 nM | 9.0 | ≤ 1 nM | – | – |
| CC1(C)C(=O)Nc2nccc(-c3nn(C[C@H]4COCCN4)c4ccccc34)c21 [Example 86] | 26 | C (C means a ratio of between 20 and 30) | > 1000 nM | 1260 nM | 7.5 | 10 to 31.6 nM | – | – |
| CC1(C)C(=O)Nc2nccc(-c3nn(C[C@@]4(C)COCCN4)c4cc(F)ccc34)c21 [Example 87] | 38 | B (B means a ratio of between 30 and 50) | 31.6 to 100 nM | 50.1 nM | 9.0 | ≤ 1 nM | – | – |
